We go through 18 compounds from ChEMBL document CHEMBL4229405, “Design, synthesis and biological evaluation of piperazino-enaminones as novel suppressants of pro-Inflammatory cytokines” (Bioorg Med Chem, 2018).

The source made the active and inactive calls. No cut-off for these calls is given here.

Data set [1] has as its system J774.2. Description: Antiinflammatory activity against mouse J774.2 cells assessed as inhibition of LPS-induced TNFalpha release at 1 mM after 24 hrs by ELISA relative to control. In kind it is functional. The following applies: J774.2, 24 h. Background: In an ELISA, binding on a coated surface is turned into a signal by an enzyme label.
Data set [2] relates to J774.2. Description: Antiinflammatory activity against mouse J774.2 cells assessed as inhibition of LPS-induced IL-6 release at 0.5 mM after 24 hrs by ELISA relative to control. In kind it is functional. The following applies: for inhibition at 500 µM: J774.2, 24 h.
A short description of data set [3]: Lipophilicity, log P of the compound. In kind it is physicochemical. The following applies: octanol/water.
Data set [4] concerns J774.2. As to the kind of experiment: Antiinflammatory activity against mouse J774.2 cells assessed as inhibition of LPS-induced IL-6 release at 0.25 mM after 24 hrs by ELISA relative to control. The format is functional. The following applies: J774.2, 24 h.
The test system of data set [5] is J774.2. As to the kind of experiment: Antiinflammatory activity against mouse J774.2 cells assessed as inhibition of LPS-induced TNFalpha release at > 0.5 mM after 24 hrs by ELISA. The format is functional, cell-based.
The test system of data set [6] is J774.2. As to the kind of experiment: Antiinflammatory activity against mouse J774.2 cells assessed as inhibition of LPS-induced IL-6 release at 1 mM after 24 hrs by ELISA relative to control. In kind it is functional. The following applies: for inhibition at 1000 µM: J774.2, 24 h.
Data set [7] deals with J774.2. As to the kind of experiment: Antiinflammatory activity against mouse J774.2 cells assessed as inhibition of LPS-induced TNFalpha release at 0.25 mM after 24 hrs by ELISA relative to control. In kind it is functional. The following applies: J774.2, 24 h.
For data set [8], the system named is J774.2. As to the kind of experiment: Antiinflammatory activity against mouse J774.2 cells assessed as inhibition of LPS-induced TNFalpha release after 24 hrs by ELISA. In kind it is functional, cell-based.
Data set [9] has as its system J774.2. As to the kind of experiment: Antiinflammatory activity against mouse J774.2 cells assessed as inhibition of LPS-induced TNFalpha release at 0.25 to 1 mM after 24 hrs by ELISA. In kind it is functional, cell-based.

Turning to `C[C@@H]1C[C@H]2[C@@H]3CCC4=CC(=O)C=C[C@]4(C)[C@@]3(F)[C@@H](O)C[C@]2(C)[C@@]1(O)C(=O)CO` [DEXAMETHASONE], the inhibition at 1000 µM in the data set on J774.2 [1] was determined as 62%. In addition, the inhibition at 500 µM in the data set with J774.2 [2] worked out at 40%.

The compound `CCOC(=O)C1C(=O)C=C(Nc2cccc(N3CCN(C)CC3)c2)CC1c1ccccc1` (stereo unspecified) came in with a logP in data set [3] of 4.37. Moreover, in the data set with J774.2 [4], the inhibition at 250 µM came to 35%. In addition, in the data set on J774.2 [5], the inhibition entry was “Active”.

`CCOC(=O)C1C(=O)C=C(Nc2ccccc2N2CCN(C)CC2)CC1C` (stereo unspecified): the logP in data set [3] was 3.02. The figures for the inhibition at 1000 µM in the data set with J774.2 [1] and with J774.2 [6] were 53% and 72%, respectively.

Regarding `CCOC(=O)C1C(=O)C=C(Nc2ccc(N3CCN(C)CC3)cc2)CC1C` (stereo unspecified), the logP in [3] amounted to 3.07.

As for `CCOC(=O)C1C(=O)C=C(Nc2ccccc2N2CCN(C)CC2)CC1c1ccccc1` (stereo unspecified), the logP in data set [3] came to 4.35.

`CCN1CCN(c2ccc(NC3=CC(=O)C(C(=O)OC)C(C)C3)cc2)CC1` (stereo unspecified) displayed a logP in data set [3] of 3.07.

In data set [3], `CCOC(=O)C1C(=O)C=C(Nc2ccc(N3CCN(CC)CC3)cc2)CC1c1ccccc1` (stereo unspecified) had a logP of 4.77. The inhibition result in the data set with J774.2 [6] and with J774.2 [2] was “inactive” each time. Besides, the inhibition at 250 µM in the data set on J774.2 [4] and with J774.2 [7] was 62% throughout.

As for `CCN1CCN(c2ccc(NC3=CC(=O)C(C(=O)OC)C(c4ccccc4)C3)cc2)CC1` (stereo unspecified), the log partition coefficient (logP) in [3] is 4.39. Further, the inhibition at 250 µM in the data set with J774.2 [4] worked out at 86%; in the data set on J774.2 [7] it was 65%. Moreover, the inhibition entry with J774.2 [8] is “Dose-dependent effect”.

In [3], `COC(=O)C1C(=O)C=C(Nc2cccc(N3CCN(C)CC3)c2)CC1C` (stereo unspecified) yielded a logP of 2.67. Moreover, the inhibition at 250 µM in the data set on J774.2 [7] is 40%.

In [3], `COC(=O)C1C(=O)C=C(Nc2ccc(N3CCN(C)CC3)cc2)CC1C` (stereo unspecified) yielded a lipophilicity (logP) of 2.7. For the same compound, in the data set on J774.2 [4], the inhibition at 250 µM worked out at 53%. Also, the inhibition entry in the data set with J774.2 [9] is “inactive”.

In data set [3], `COC(=O)C1C(=O)C=C(Nc2ccc(N3CCN(C)CC3)cc2)CC1c1ccccc1` (stereo unspecified) returned a logP of 4.02. For the same compound, the inhibition at 1000 µM in the data set on J774.2 [1] is 80 to 82%. Besides, the inhibition at 250 µM with J774.2 [4] is 9 to 70%; in the data set with J774.2 [7], 30%. In addition, the inhibition at 500 µM in the data set on J774.2 [2] came to 98%.

Regarding `CCOC(=O)C1C(=O)C=C(Nc2cccc(N3CCN(C)CC3)c2)CC1C` (stereo unspecified), the logP in data set [3] was found to be 3.05.

`CCOC(=O)C1C(=O)C=C(Nc2ccc(N3CCN(C)CC3)cc2)CC1c1ccccc1` (stereo unspecified) showed a logP in [3] of 4.39. In addition, in the data set with J774.2 [1], the inhibition at 1000 µM came to 100%. For the same compound, the inhibition result with J774.2 [6] is “inactive”. Moreover, the inhibition at 250 µM in the data set with J774.2 [4] is 64 to 98%; in the data set on J774.2 [7], 52%. The inhibition at 500 µM in the data set with J774.2 [2] came out at 100%.

Consider `CCOC(=O)C1C(=O)C=C(Nc2ccc(Cl)cc2)CC1C` (stereo unspecified), for which the inhibition at 1000 µM was found to be 70% with J774.2 [1] and 96% in the data set on J774.2 [6]. The inhibition at 250 µM with J774.2 [4] was determined as 20%.

As for `COC(=O)C1C(=O)C=C(Nc2ccccc2N2CCN(C)CC2)CC1c1ccccc1` (stereo unspecified), the logP in [3] was determined as 3.97.

`COC(=O)C1C(=O)C=C(Nc2cccc(N3CCN(C)CC3)c2)CC1c1ccccc1` (stereo unspecified) registered a logP in data set [3] of 3.99. Further, the inhibition at 250 µM with J774.2 [4] turned out to be 72%; in the data set with J774.2 [7], 53%. The inhibition entry in the data set on J774.2 [8] is “Dose-dependent effect”.

For `CCOC(=O)C1C(=O)C=C(Nc2ccc(N3CCN(CC)CC3)cc2)CC1C` (stereo unspecified), the log partition coefficient (logP) in data set [3] was found to be 3.45. Also, the inhibition at 250 µM in the data set on J774.2 [4] is 25%. The inhibition entry with J774.2 [5] was “Active”.

`COC(=O)C1C(=O)C=C(Nc2ccccc2N2CCN(C)CC2)CC1C` (stereo unspecified): the lipophilicity (logP) in [3] is 2.65. Besides, the inhibition at 1000 µM in the data set on J774.2 [1] is 47%; with J774.2 [6] it was 68%.

The term inhibition denotes the change of the read-out against control, counted positive when it falls. A word on the logP: it is the decadic logarithm of the partition coefficient of the neutral form, usually between octanol and water.
